Data as given in paper PMC4935840, “Molecular basis of the remarkable species selectivity of an insecticidal sodium channel toxin from the African spider Augacephalus ezendami” (Scientific Reports, 2016).
Entries after “also recorded” stand apart in the source; their conditions may differ.

Assays:
[1] = tested on: triatomine bug Rhodnius prolixus; assay: Toxicity by injection into triatomine bugs; assay type: in vivo; details: for activity against R. prolixus (in words): injection
Description: (§1) Figure 3 Insecticidal effects of Ae1a. (A) rAe1a was injected into blowflies (Lucilia cuprina) and paralytic effects were measured 0.5 and 1 h after injection. (B) rAe1a was injected into fruit flies (Drosophila melanogaster) and paralytic and lethal effects were measured at 3 h and 24 h post injection. (C) rAe1a and Hv1a were injected into the triatomine bug Rhodnius prolixus and lethality was measured 24 h after injection. PD50 and LD50 values were calculated as described previously.
Toxicity against R. prolixus was measured using the method described by Luna et al.[49] with some modifications. Microinjection needles, made by pulling borosilicate glass capillaries with a needle puller (Narishige, PC-10, Japan), were fitted onto a Nanoject II auto injector (Drummond Scientific, Broomall, PA, USA). Ae1a, Hv1a, or PBS (n = 7–10 per dose, 138 nl volume) were injected into the thorax of second instar R. prolixus nymphs (average mass 1.4 mg) via articulation of prothoracic coxa. Synthetic Hv1a was kindly supplied by Vestaron Corporation (Kalamazoo, MI, USA). Three separate sets of experiments were performed for each compound. After injection, bugs were transferred to plastic cages and stored at 26 °C with 50% relative humidity. All bugs were checked at 24 h post-injection for signs of paralysis or lethality.

honeybees = details: cited from earlier work
From the text: (§2) An ideal bioinsecticide would be specific for the targeted insect pest, without harming beneficial insects. Although most spiders are generalist predators that hunt many types of insect prey, some spider-venom peptides have been isolated that are specific to certain insect orders or even to certain species within an insect order. […] Another ex ...

[2] = tested on: wide range of insect pest species; details: cited from earlier work
From the text: as §2

[3] = tested on: insect voltage-gated calcium channels; details: cited from earlier work
[4] = tested on: sheep blowflies (Lucilia cuprina); assay: Insecticidal activity by injection into sheep blowflies (PD50); assay type: in vivo
Description: as §1
rAe1a was dissolved in insect saline[45] and injected into the ventro-lateral thoracic region of adult sheep blowflies (L. cuprina; mass 26.8–29.7 mg) as described previously. A maximum of 2 μl was injected per fly using a 1.0 ml Terumo Insulin syringe with 29-gauge needle fitted to an Arnold hand micro-applicator (Burkard Manufacturing Co. Ltd., Rickmansworth, England). After injection, flies were individually housed in 2-ml tubes and paralytic effects determined after 0.5, 1 and 24 h. A total of three assays were performed, and for each assay nine doses of rAe1a (n = 10 flies per dose) and the appropriate control (insect saline; n = 20 flies each) were used. PD50 values were calculated as described.

[5] = tested on: fruit flies (Drosophila melanogaster); assay: Insecticidal activity by injection into fruit flies (PD50, LD50); assay type: in vivo; details: D. melanogaster
Description: as §1
The effect on rAe1a on fruit flies was determined using a previously described method. rAe1a was dissolved in 100 mM ammonium acetate buffer (pH 6.1) and injected into the lateral thoracic region of adult female D. melanogaster using a glass capillary connected with silicone tubing to a 10 ml plastic syringe. The injection volume per fruit fly was calibrated to be 50 nl for each glass capillary. After injection, fruit flies were housed in 68-ml plastic tubes (containing a cotton piece soaked in 0.5% sucrose solution) in groups of 10 (all receiving the same treatment) and monitored for signs of paralysis or lethality at 3 and 24 h post-injection.

[6] = tested on: cotton bollworms (H. armigera larvae); assay: Injection into cotton bollworm larvae; assay type: in vivo, Helicoverpa armigera
Description: We examined the effect of rAe1a on cotton bollworms (i.e., larvae of H. armigera) supplied by AgBiTech (Glenvale, QLD, Australia). […] Larvae were kept on artificial diet (AgBiTech) in standard 6-well plates and their mass was measured 24, 48 and 72 h after the injection.

[7] = tested on: diamondback moth Plutella xylostella; assay: Injection into larvae of the diamondback moth (data not shown); assay type: in vivo; details: injected into larvae of Plutella xylostella
BgNaV1 = assay: Two-electrode voltage-clamp of BgNaV1 in Xenopus oocytes; assay type: cell-based, Blattella germanica
Description: (§3) Figure 4 Effect of rAe1a on BgNav1 and hNaV1.5. Left panels: Representative traces showing the effect of rAe1a (200 nM) on sodium currents mediated by (A) BgNaV1, (C) mutant BgNaV1 (H805Y/D812E), and (E) hNaV1.5 heterologously expressed in Xenopus oocytes. Currents were evoked by a depolarization to −15 mV, with black and red traces corresponding to the current before and after toxin application, respectively. Right panels: Effect of 200 nM rAe1a on normalized conductance-voltage (G–V) relationships (G/Gmax) and steady-state inactivation (SSI) relationships (I/Imax) for (B) BgNaV1, (D) mutant BgNaV1, and (F) hNaV1.5. […]
(§4) cRNA encoding BgNaV1 from Blattella germanica[50] and hNaV1.5 (Origene, Rockville, MD, USA) was synthesized using T7 polymerase (mMessage mMachine kit, Life Technologies, USA) after linearizing the fully-sequenced DNA. […] Oocytes were incubated at 17 °C in 96 mM NaCl, 2 mM KCl, 5 mM HEPES, 1 mM MgCl2 and 1.8 mM CaCl2, 50 μg/ml gentamycin, pH 7.6 with NaOH, and currents were measured 1–2 days after cRNA injection using the two-electrode voltage-clamp recording technique (OC-725C, Warner Instruments, Hamden, CT, USA) with a 150-μl recording chamber. […] After addition of rAe1a to the recording chamber, equilibration between toxin and channel was monitored using weak depolarizations elicited at 5-s intervals. […]

[8] = tested on: mutant BgNaV1 (H805Y/D812E); assay: Two-electrode voltage-clamp of mutant BgNaV1 (H805Y/D812E) in Xenopus oocytes; assay type: cell-based, Blattella germanica; details: BgNaV1 H805Y/D812E versus wild-type BgNaV1
Description: as §3, §4

hNaV1.5 = assay: Two-electrode voltage-clamp of hNaV1.5 in Xenopus oocytes; assay type: cell-based; details: hNaV1.5 + human β1 in Xenopus oocytes, 200 nM, n = 3–5
Description: as §3, §4

[9] = tested on: NaV channel currents in dorsal unpaired median (DUM) neurons (PaNaV1); assay: Whole-cell patch-clamp of NaV channel currents in DUM neurons; assay type: cell-based, Periplaneta americana; details: P. americana DUM neurons
Description: Figure 5 Effect of rAe1a on NaV channel currents in P. americana DUM neurons. (A) Representative traces showing the effect of 1 μM rAe1a on INa mediated by PaNaV1 in P. americana DUM neurons. Currents were evoked by depolarizations to −10 mV, from a holding potential of −90 mV (panel B), with black and red traces corresponding to the current before, and 5 min after, toxin application, respectively. (C) Time course of rAe1a actions on PaNaV1. Peak INa were recorded at a rate of 0.1 Hz before (black circles), and for 5 min during, application of 1 μM rAe1a (red circles) and normalized against maximal peak INa (−1/Imax; n = 3). (D) GNa-V relationships in P. americana DUM neurons. A voltage protocol with depolarisation steps from −90 mV to +40 mV in 10 mV increments (lower panel B) was used to generate families of INa. The normalized conductance-voltage (GNa-V) relationship (G/Gmax) is shown before (black circles) and after (red circles) a 5 min perfusion with 1 μM rAe1a (n = 4). […]
Ionic currents were recorded from DUM neurons in voltage-clamp mode using the whole-cell patch-clamp technique employing version 10.2 of the pCLAMP data acquisition system (Molecular Devices, Sunnyvale, CA, USA). […] Liquid junction potentials were calculated using JPCALC, and all data were compensated for these values. […] Peak current amplitude was analysed offline using AxoGraph X v1.5.3 (Molecular Devices). […]

[10] = tested on: fruit fly Drosophila melanogaster; assay: Screen of spider venoms / native peptide by injection into fruit flies; assay type: in vivo; details: injected into D. melanogaster
Description: We used the fruit fly Drosophila melanogaster to rapidly screen spider venoms for insecticidal activity. […] Microinjection of venoms or toxins into D. melanogaster has the advantage that it requires only small volumes (50 nl per fly), which enables the study of scarce venoms from small venomous animals. Given the worldwide availability of Drosophila and the general sensitivity of flies towards spider toxins, this assay provides a convenient method for determining the insecticidal potency of venom compounds. However, as discussed below, it should not be used in isolation but rather as part of a taxonomically diverse screening protocol that aims to uncover potentially complex phyletic specificities.

[11] = tested on: American cockroaches (Periplaneta americana); details: at much higher doses; cited from earlier work
From the text: as §2

[12] = tested on: German cockroaches (Blattella germanica); details: cited from earlier work
From the text: as §2

[13] = tested on: BgNaV1 over PaNaV1 channels; details: cited from earlier work
From the text: The selectivity of Ae1a for BgNaV1 over PaNaV1 channels is reminiscent of the selectivity reported for the insecticidal spider-venom peptide μ-DGTX-Dc1a (Dc1a) isolated from the American desert spider Diguetia canities. In order to explore the molecular basis of this species selectivity we examined the ability of Ae1a to inhibit the activity of a BgNaV1 channel containing two mutations that were previously reported to determine sensitivity to Dc1a[18].

| Substance | LD50 ([1]; R. prolixus second instar nymphs, injection into thorax, 24 h after injection, n = 7–10 per dose, three experiments) [pmol/g] | activity against R. prolixus (in words) [1] | activity against honeybees (in words) (honeybees) | lethality (in words) [2] | calcium channel inhibition (in words) [3] | paralysis (in words) ([4]; L. cuprina) | PD50 (summary value) ([4]; sheep blowflies, approximate value in discussion) | paralysis / lethality (in words) [5] | adverse effects / resistance (in words) [6] | lethality (in words) [7] | inhibition of BgNaV1 currents (in words) (BgNaV1) | sensitivity of mutant channel to toxin (in words) [8] | effect on hNaV1.5 currents and gating (in words) (hNaV1.5) | effect on NaV channel currents in DUM neurons (in words) [9] | lethality / toxicity (in words) [10] | adverse effects (in words) [11] | lethality (in words) [12] | selectivity for BgNaV1 over PaNaV1 (in words) [13] |
| --- | --- | --- | --- | --- | --- | --- | --- | --- | --- | --- | --- | --- | --- | --- | --- | --- | --- | --- |
| ω-hexatoxin-Hv1a | 147 ± 37 | highly susceptible | inactive | lethal | selective inhibitor | – | – | – | – | – | – | – | – | – | – | – | – | – |
| μ-theraphotoxin-Ae1a | – | inactive | – | – | – | rapid but reversible paralysis; also recorded: reverses within 24 h | ~ 950 pmol/g | lethal; also recorded: irreversible paralysis leading to death; also recorded: highly sensitive | no adverse effects; also recorded: resistant | lethal | potently inhibits | much less sensitive | completely inactive | failed to significantly affect sodium currents; also recorded: no significant affect | lethal | – | – | – |
| μ-DGTX-Dc1a | – | – | – | – | – | – | – | – | – | – | – | – | – | – | – | does not induce adverse effects | lethal | selectivity |
